Assay results: patent US9199962B2, “Substituted azaheterocycles for the treatment of cancer” (Merck Patent GmbH, priority 2011, dated 2015)

How the values were obtained:
[1] = target: T1, focal adhesion kinase (FAK) autophosphorylation at tyrosine 397 in HT29 cells (Homo sapiens, UniProt Q05397); test: Cellular testing of FAK inhibitors: FAK autophosphorylation at tyrosine 397 in HT29 cells (Luminex-based assay); type: cell-based; details: Table 4, phospho-Y397-FAK, 30 min serum-free, read-out: IC50 HT-29
T1 construct: endogenous in cells; host or cells: HT29
Method: 2. Assay Principle for Celluar Testing of FAK Inhibitors
Cellular activity of focal adhesion kinase (FAK) is determined by the degree of FAK autophosphorylation at tyrosine 397 using a Luminex-based assay. HT29 cells are plated with 30,000 cells per well of a 96-well plate in 100 μl medium (90% DMEM/10% FCS). At the following day, test compounds are added in a serial dilution under serum-free conditions for 30 min. Then, cells were lysed with 90 μl lysis buffer (20 mM Tris/HCl pH 8.0, 150 mM NaCl, 1% NP40, 10% Glycerol, 1% Phosphatase-Inhibitor II, 20 mM […]-Glycerolphosphat, 0.1% Protease-Inhibitor Cocktail III, 0.01% Benzonase) and lysates were cleared by centrifugation through a 96-well filter plate (0.65 μm). Samples were incubated with Luminex-beads which were coupled with an anti-total FAK antibody overnight at 4° C. with under gentle agitation. For detection of phospho-Y397-FAK a phosphospecific antibody and a species specific PE-labeled secondary antibody are added. The amount of phospho-Y397-FAK is determined in a Luminex100 machine measuring 100 events per well within 60 seconds.
Counts from samples treated with a FAK reference inhibitor are subtracted as pharmacological blank. Counts from samples treated with test compounds are calculated as percent of control from solvent treated (0.3% DMSO) samples. IC50 values were determined using AssayExplorer software.

[2] = target: T2, GST-FAK (N-terminal GST fusion with truncated human FAK (376-1052 (end) amino acids)) (Homo sapiens, UniProt Q05397); test: Biochemical enzyme assay for FAK activity (Caliper LC3000 mobility shift); details: Table 4; 100 uM ATP; read-out: IC50 FAK
T2 construct: truncated human FAK (376-1052 (end) amino acids)
In short: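 Inhibitor dose series in DMSO were incubated 90 min at 25 °C with truncated GST-tagged human FAK (0.067 ng/µl) and FITC-labelled peptide substrate (1 µM), with ATP at 100 µM and FERM peptide at 1 mM (pH 7.5 HEPES). After EDTA quench, phosphorylated and unphosphorylated peptides were resolved electrophoretically. Percent conversion was fitted for IC50.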

T2 sequence (Q05397 376-1052): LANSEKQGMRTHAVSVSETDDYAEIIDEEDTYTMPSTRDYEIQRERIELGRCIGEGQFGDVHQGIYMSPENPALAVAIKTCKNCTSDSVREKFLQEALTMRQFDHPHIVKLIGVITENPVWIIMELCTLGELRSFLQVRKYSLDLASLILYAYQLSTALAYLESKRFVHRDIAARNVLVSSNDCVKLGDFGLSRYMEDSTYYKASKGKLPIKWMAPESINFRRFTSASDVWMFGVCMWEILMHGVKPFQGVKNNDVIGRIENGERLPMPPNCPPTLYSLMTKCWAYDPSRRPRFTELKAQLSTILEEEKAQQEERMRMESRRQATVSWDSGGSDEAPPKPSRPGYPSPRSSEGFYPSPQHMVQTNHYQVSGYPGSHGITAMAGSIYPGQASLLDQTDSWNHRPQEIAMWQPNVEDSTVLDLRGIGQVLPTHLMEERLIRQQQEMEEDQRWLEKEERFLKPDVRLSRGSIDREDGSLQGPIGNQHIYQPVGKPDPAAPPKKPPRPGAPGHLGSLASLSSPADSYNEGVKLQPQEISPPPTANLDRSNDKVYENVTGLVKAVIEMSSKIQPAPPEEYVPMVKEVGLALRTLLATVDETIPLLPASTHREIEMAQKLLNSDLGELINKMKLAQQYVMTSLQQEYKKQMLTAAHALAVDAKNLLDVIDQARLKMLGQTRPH
T1 sequence (Q05397 whole entry): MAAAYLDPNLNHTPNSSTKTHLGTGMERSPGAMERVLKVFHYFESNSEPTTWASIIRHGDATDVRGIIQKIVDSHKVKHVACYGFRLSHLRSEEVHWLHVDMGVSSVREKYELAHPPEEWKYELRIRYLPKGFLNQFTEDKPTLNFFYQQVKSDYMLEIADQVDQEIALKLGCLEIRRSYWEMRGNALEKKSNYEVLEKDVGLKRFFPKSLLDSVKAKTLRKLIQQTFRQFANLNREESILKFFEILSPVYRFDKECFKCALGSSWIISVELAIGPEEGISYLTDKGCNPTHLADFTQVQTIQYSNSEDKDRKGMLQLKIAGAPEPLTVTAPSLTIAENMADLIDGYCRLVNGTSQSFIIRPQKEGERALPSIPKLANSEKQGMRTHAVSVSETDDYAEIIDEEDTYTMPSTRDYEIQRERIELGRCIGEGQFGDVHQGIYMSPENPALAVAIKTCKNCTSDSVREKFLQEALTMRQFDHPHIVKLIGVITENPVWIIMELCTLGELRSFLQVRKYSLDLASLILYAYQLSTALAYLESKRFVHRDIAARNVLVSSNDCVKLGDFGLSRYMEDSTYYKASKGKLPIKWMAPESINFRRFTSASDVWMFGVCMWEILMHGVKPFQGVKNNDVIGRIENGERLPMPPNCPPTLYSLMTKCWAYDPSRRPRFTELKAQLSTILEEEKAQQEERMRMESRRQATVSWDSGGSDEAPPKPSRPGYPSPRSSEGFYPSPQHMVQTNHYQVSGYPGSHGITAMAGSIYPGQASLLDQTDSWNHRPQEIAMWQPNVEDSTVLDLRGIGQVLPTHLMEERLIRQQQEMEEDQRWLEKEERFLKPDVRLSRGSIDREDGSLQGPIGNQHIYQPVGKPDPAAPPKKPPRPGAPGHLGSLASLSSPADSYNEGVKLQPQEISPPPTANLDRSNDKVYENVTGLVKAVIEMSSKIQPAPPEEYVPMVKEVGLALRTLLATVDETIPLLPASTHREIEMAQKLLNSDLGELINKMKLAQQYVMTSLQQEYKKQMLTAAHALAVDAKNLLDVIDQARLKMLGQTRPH

IC50 [1] [nM] | IC50 [2] [nM] | SMILES
100 to 1000 | < 100 | CN(C)CCNC(=O)c1cc(NCc2ccc(F)cc2F)nc(-c2cncc(C(F)(F)F)c2)n1 [Compound 148, 6-[(2,4-difluorophenyl)methylamino]-N-(2-dimethylaminoethyl)-2-[5-(trifluoromethyl)-3-pyridyl]pyrimidine-4-carboxamide]
1000 to 10000 | 100 to 1000 | Fc1ccc(F)c(CNc2ccnc(-c3cncc(C(F)(F)F)c3)n2)c1 [Compound 154, N-[(2,5-difluorophenyl)methyl]-2-[5-(trifluoromethyl)-3-pyridyl]pyrimidin-4-amine]
100 to 1000 | < 100 | O=C(NCCN1CCCC1=O)c1cc(NCc2ccc(F)cc2F)nc(-c2cncc(C(F)(F)F)c2)n1 [Compound 160, 6-[(2,4-difluorophenyl)methylamino]-N-[2-(2-oxopyrrolidin-1-yl)ethyl]-2-[5-(trifluoromethyl)-3-pyridyl]pyrimidine-4-carboxamide]
